Converted amounts (≈) assume the structure as drawn.
Legend:
[1] = Cytotoxic activity, MTT assay; assay type: cell-based; conditions: mouse, L929 fibroblast cells, read-out: IC50 L929 (cytotoxicity)
Experimental: The Trypanosoma cruzi ATCC 50825 reference strain and the L929 mouse fibroblast cell line (American Type Culture Collection, USA) used in this study were obtained from the Parasite Bank of […] Bayar University Faculty of Medicine. Fibroblasts preserved in liquid nitrogen were treated with RPMI-1640 and passaged into RPMI-1640 medium containing 10% FBS (fetal bovine serum). The cells were incubated at 37 °C with 5% CO2 for 48 h. The number and viability of proliferating cells were determined using Trypan Blue staining and a hemocytometer. A 100 μL cell suspension containing 10^5 cells/mL was distributed into 96-well microplates. Serial dilutions of the […] suspension (final concentration range: 5000-39 μg/mL), miltefosine (final concentration range: 512-0.125 μg/mL), and benznidazole (final concentration range: 640-0.60 μg/mL) were prepared in a separate microplate and transferred to the microplates containing the cells. The plates were incubated at 37 °C with 5% CO2 for 48 h. […] IC50 values indicating cytotoxic activity were calculated using GraphPad Prism 8.4.2 software. The cytotoxic activity tests were repeated three times on different days.

[2] = system: T. cruzi ATCC 50825 strain epimastigotes; assay: Minimum parasiticidal concentration (MPC), motility and morphology under inverted microscope; assay type: cell-based, Trypanosoma cruzi
[3] = system: T. cruzi ATCC 50825 strain epimastigotes; assay: Antitrypanosomal activity, broth microdilution with MTT viability (IC50); assay type: cell-based, Trypanosoma cruzi; conditions: for SI (selectivity index): IC50 fibroblasts (L929) / IC50 T. cruzi epimastigotes; for IC50: Trypanosoma cruzi
Experimental: The Trypanosoma cruzi ATCC 50825 reference strain and the L929 mouse fibroblast cell line (American Type Culture Collection, USA) used in this study were obtained from the Parasite Bank of […] Bayar University Faculty of Medicine. […] For the determination of antitrypanosomal activity, 100 μL of RPMI-1640 medium was distributed into each well of sterile, flat-bottom, 96-well microplates. Serial dilutions of the hybrid NP complex were prepared in the range of 2500-19.5 μg/mL, miltefosine in the range of 128-1 μg/mL, and benznidazole in the range of 320-0.30 μg/mL. […] The morphological structure and motility of the epimastigotes in all wells were observed under an inverted microscope. The lowest concentration of the active substance at which all parasites were immobile and their morphology was disrupted was determined as the minimum parasiticidal concentration (MPC). […] Absorbance values were measured at 570 nm using a Thermo Varioskan model spectrophotometer (USA). IC50 values indicating antitrypanosomal activity were calculated using GraphPad Prism 8.4.2 software. Efficacy tests were repeated three times on different days.

T. cruzi amastigote = system: T. cruzi amastigote; design: method as in Gulin et al. (2022) [17]; conditions: amastigote forms; ref Gulin et al. (2022) [17]; cited from earlier work
T. cruzi trypomastigote = system: T. cruzi trypomastigote; design: method as in Gulin et al. (2022) [17]; conditions: trypomastigote forms; ref Gulin et al. (2022) [17]; cited from earlier work
[4] = ATCC50825, 24 h, 24 h, epimastigotes
[5] = ATCC50825, 48 h, 48 h, epimastigotes
[6] = ATCC50825, 72 h, 72 h, epimastigotes

Compound | IC50 at 24 h [1] [µg/mL] | IC50 at 48 h [1] [µg/mL] | IC50 at 72 h [1] [µg/mL] | MPC (minimum parasiticidal concentration) ([2]; 24 h) [µg/mL] | MPC (minimum parasiticidal concentration) ([2]; 48 h) [µg/mL] | MPC (minimum parasiticidal concentration) ([2]; 72 h) [µg/mL] | SI (selectivity index) ([3]; 24 h) | SI (selectivity index) ([3]; 48 h) | SI (selectivity index) ([3]; 72 h) | IC50 [3, 4] [µg/mL] | IC50 [3, 5] [µg/mL] | IC50 [3, 6] [µg/mL] | IC50 (T. cruzi amastigote) [µM] | IC50 T. cruzi ([3]; 72 h, epimastigotes) [µg/mL] | Selectivity (SI) as worded ([3]; over 24, 48 and 72 h, L929 vs T. cruzi epimastigotes) | IC50 (T. cruzi trypomastigote) [µM]
O=C(Cn1ccnc1[N+](=O)[O-])NCc1ccccc1 [Benznidazole] | 1010 (≈ 3880 µM) | 822 (≈ 3160 µM) | 807 (≈ 3100 µM) | 155 | 155 | 77.5 | 15 | 18.2 | 23 | 67.1 (≈ 258 µM) | 45 (≈ 173 µM) | 34.5 (≈ 133 µM) |  |  |  | 
CCCCCCCCCCCCCCCCOP(=O)([O-])OCC[N+](C)(C)C [Miltefosine] | 38 (≈ 93.4 µM) | 33.5 (≈ 82.2 µM) | 27 (≈ 66.2 µM) | 128 | 128 | 64 | 1.5 | 2.2 | 4.2 | 26.2 (≈ 64.2 µM) | 15 (≈ 36.8 µM) | 6.42 (≈ 15.8 µM) | 0.48 | 6.42 (≈ 15.8 µM) | > 1 | 0.55
